Measured values from US20260167623A1 (NIKANG THERAPEUTICS, INC., priority 2022, published 2026).

Molecular target: T1, CDK2 (Homo sapiens, UniProt P24941)
T1 construct: High-Throughput Measurement of Cellular Endogenous CDK2; endogenous in cells; host or cells: OVCAR3
Test: Inhibition of CDK2: phospho-Rb (S807/811) HTRF measurement in OVCAR3 cells, 24 h
Assay type: cell-based
Settings: 24 h compound treatment, read-out: pRB_OVCAR3_24h
Procedure, shortened: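 OVCAR3 cells, seeded overnight, were exposed to compounds at 0.3 to 10,000 nM for 24 h, then lysed. Rb S807/811 phosphorylation read by HTRF (665/620 nm ratio) after 4 h detection at room temperature; data normalized to DMSO and IC50 from four-parameter logistic fit.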

Compound	IC50 [nM]
Cn1nc(N2CCC(=O)NC2=O)c2ccc(C3CCN(CC4CCN(c5cccc(S(=O)(=O)N6[C@@H]7CC[C@H]6CC(Nc6ncc(Cl)cn6)C7)c5)CC4)CC3)cc21 (stereo partly drawn) [Example 227, 1-(6-(1-((1-(3-(((1R,5S)-3-((5-chloropyrimidin-2-yl)amino)-8-azabicyclo[3.2.1]octan-8-yl)sulfonyl)phenyl)piperidin-4-yl)methyl)piperidin-4-yl)-1-methyl-1H-indazol-3-yl)dihydropyrimidine-2,4(1H,3H)-dione]	500 to 2500
Cn1nc(N2CCC(=O)NC2=O)c2ccc(C3CCN(CC4CCN(c5ccc(S(=O)(=O)N6CCC(Nc7ncc(Cl)cn7)CC6)cc5)CC4)CC3)cc21 [Example 158, 1-(6-(1-((1-(4-((4-((5-chloropyrimidin-2-yl)amino)piperidin-1-yl)sulfonyl)phenyl)piperidin-4-yl)methyl)piperidin-4-yl)-1-methyl-1H-indazol-3-yl)dihydropyrimidine-2,4(1H,3H)-dione]	500 to 2500
Cn1nc(N2CCC(=O)NC2=O)c2ccc(N3CCN(CC4CCN(c5cccc(S(=O)(=O)N6CCC(Nc7ncc(Cl)cn7)CC6)c5)CC4)CC3)cc21 [Example 52, 1-(6-(4-((1-(3-((4-((5-chloropyrimidin-2-yl)amino)piperidin-1-yl)sulfonyl)phenyl)-piperidin-4-yl)methyl)piperazin-1-yl)-1-methyl-1H-indazol-3-yl)dihydropyrimidine-2,4(1H,3H)-dione]	500 to 2500
Cn1nc(N2CCC(=O)NC2=O)c2ccc(C3CCN(C[C@@H]4CCCN4c4cccc(S(=O)(=O)N5CCC(Nc6ncc(OC(F)F)cn6)CC5)c4)CC3)cc21 [Example 259, (S)-1-(6-(1-((1-(3-((4-((5-(difluoromethoxy)pyrimidin-2-yl)amino)piperidin-1-yl)sulfonyl)phenyl)pyrrolidin-2-yl)methyl)piperidin-4-yl)-1-methyl-1H-indazol-3-yl)dihydropyrimidine-2,4(1H,3H)-dione]	500 to 2500
Cn1nc(N2CCC(=O)NC2=O)c2ccc(C3CCN(CC4CCN(S(=O)(=O)N5CCC(Nc6ncc(C(F)(F)F)cn6)CC5)CC4)CC3)cc21 [Example 15, 1-(1-methyl-6-(1-((1-((4-((5-(trifluoro-methyl)pyrimidin-2-yl)amino)piperidin-1-yl)sulfonyl)piperidin-4-yl)methyl)piperidin-4-yl)-1H-indazol-3-yl)dihydropyrimidine-2,4(1H,3H)-dione]	500 to 2500
Cn1c(=O)n(C2CCC(=O)NC2=O)c2cc(C3CCN(CC4CCN(c5cccc(S(=O)(=O)N6CCC(Nc7ncc(C(F)(F)F)cn7)CC6)c5)CC4)CC3)ccc21 (stereo not drawn) [Example 167, 3-(3-methyl-2-oxo-6-(1-((1-(3-((4-((5-(trifluoromethyl)pyrimidin-2-yl)amino)piperidin-1-yl)sulfonyl)phenyl)piperidin-4-yl)methyl)piperidin-4-yl)-2,3-dihydro-1H-benzo[d]imidazol-1-yl)piperidine-2,6-dione]	500 to 2500
CN(Cc1cccc(S(=O)(=O)N2CCC(Nc3ncc(C(F)(F)F)cn3)CC2)c1)CC1CCN(c2ccc3c(N4CCC(=O)NC4=O)nn(C)c3c2)CC1 [Example 88, 1-(1-methyl-6-(4-((methyl(3-((4-((5-(trifluoromethyl)pyrimidin-2-yl)amino)-piperidin-1-yl)sulfonyl)benzyl)amino)-methyl)piperidin-1-yl)-1H-indazol-3-yl)dihydropyrimidine-2,4(1H,3H)-dione]	500 to 2500
Cn1nc(N2CCC(=O)NC2=O)c2ccc(C3CCN(CC4CCN(c5ccc(C#N)c(S(=O)(=O)N6CCC(Nc7ncc(Cl)cn7)CC6)c5)CC4)CC3)cc21 [Example 161, 2-((4-((5-chloropyrimidin-2-yl)amino)piperidin-1-yl)sulfonyl)-4-(4-((4-(3-(2,4-dioxotetrahydropyrimidin-1(2H)-yl)-1-methyl-1H-indazol-6-yl)piperidin-1-yl)methyl)piperidin-1-yl)benzonitrile]	> 2500
CC(Cc1cccc(S(=O)(=O)N2CCC(Nc3ncc(OC(F)F)cn3)CC2)c1)CN1CCN(c2cc3c(cc2F)C(=O)N(C2CCC(=O)NC2=O)C3)CC1 (stereo not drawn) [Example 102, 3-(5-(4-(3-(3-((4-((5-(difluoromethoxy)-pyrimidin-2-yl)amino)piperidin-1-yl)sulfonyl)phenyl)-2-methylpropyl)-piperazin-1-yl)-6-fluoro-1-oxoisoindolin-2-yl)piperidine-2,6-dione]	500 to 2500

Other lines, results leading:

IC50 [nM]	Compound
1 to 100	Cn1nc(N2CCC(=O)NC2=O)c2ccc(C3CCN(CCOc4cccc(S(=O)(=O)N5CCC(Nc6ncc(C(F)(F)F)cn6)CC5)c4)CC3)cc21 [Example 123, 1-(1-methyl-6-(1-(2-(3-((4-((5-(trifluoro-methyl)pyrimidin-2-yl)amino)piperidin-1-yl)sulfonyl)phenoxy)ethyl)piperidin-4-yl)-1H-indazol-3-yl)dihydropyrimidine-2,4(1H,3H)-dione]
100 to 500	Cn1nc(N2CCC(=O)NC2=O)c2ccc(C3CCN(CC4CCN(c5cccc(S(=O)(=O)N6CCC(Nc7ncc(C(F)(F)F)cn7)CC6)c5)CC4)CC3(F)F)cc21 (stereo not drawn) [Example 90, 1-(6-(3,3-difluoro-1-((1-(3-((4-((5-(trifluoromethyl)pyrimidin-2-yl)amino)-piperidin-1-yl)sulfonyl)phenyl)piperidin-4-yl)methyl)piperidin-4-yl)-1-methyl-1H-indazol-3-yl)dihydropyrimidine-2,4(1H,3H)-dione]
100 to 500	O=C1CCC(N2Cc3cc(N4CCN(CC5CCN(c6cccc(S(=O)(=O)N7CCC(Nc8ncc(Cl)cn8)CC7)c6)CC5)CC4)ccc3C2=O)C(=O)N1 (stereo not drawn) [Example 98, 3-(5-(4-((1-(3-((4-((5-chloropyrimidin-2-yl)amino)piperidin-1-yl)sulfonyl)phenyl)-piperidin-4-yl)methyl)piperazin-1-yl)-1-oxoisoindolin-2-yl)piperidine-2,6-dione]
1 to 100	Cn1nc(N2CCC(=O)NC2=O)c2ccc(C3CCN(CC4CN(c5cccc(S(=O)(=O)N6CCC(Nc7ncc(Cl)cn7)CC6)c5)C4)CC3)cc21 [Example 129, 1-(6-(1-((1-(3-((4-((5-chloropyrimidin-2-yl)amino)piperidin-1-yl)sulfonyl)phenyl)-azetidin-3-yl)methyl)piperidin-4-yl)-1-methyl-1H-indazol-3-yl)dihydropyrimidine-2,4(1H,3H)-dione]
500 to 2500	Cn1nc(N2CCC(=O)NC2=O)c2ccc(C3CCN(Cc4ccnc(S(=O)(=O)N5CCC(Nc6ncc(C(F)(F)F)cn6)CC5)c4)CC3)cc21 [Example 183, 1-(1-methyl-6-(1-((2-((4-((5-(trifluoromethyl)pyrimidin-2-yl)amino)piperidin-1-yl)sulfonyl)pyridin-4-yl)methyl)piperidin-4-yl)-1H-indazol-3-yl)dihydropyrimidine-2,4(1H,3H)-dione]
100 to 500	Cn1nc(N2CCC(=O)NC2=O)c2ccc(C3CCN(Cc4cccc(S(=O)(=O)N5CCC(Nc6ncc(C(F)F)cn6)CC5)c4)CC3)cc21 [Example 13, 1-(6-(1-(3-((4-((5-(difluoromethyl)-pyrimidin-2-yl)amino)piperidin-1-yl)sulfonyl)benzyl)piperidin-4-yl)-1-methyl-1H-indazol-3-yl)dihydropyrimidine-2,4(1H,3H)-dione]
500 to 2500	Cn1nc(N2CCC(=O)NC2=O)c2ccc(C3CCN(CC4CCN(c5cccc(S(=O)(=O)N6CCC(Nc7ncc(C(F)F)cn7)CC6)c5)CC4)CC3)cc21 [Example 195, 1-(6-(1-((1-(3-((4-((5-(difluoromethyl)pyrimidin-2-yl)amino)piperidin-1-yl)sulfonyl)phenyl)piperidin-4-yl)methyl)piperidin-4-yl)-1-methyl-1H-indazol-3-yl)dihydropyrimidine-2,4(1H,3H)-dione]
1 to 100	Cn1nc(N2CCC(=O)NC2=O)c2ccc(C3CN(CC4CCN(c5cccc(S(=O)(=O)N6CCC(Nc7ncc(C(F)(F)F)cn7)CC6)c5)CC4)C3)cc21 [Example 118, 1-(1-methyl-6-(1-((1-(3-((4-((5-(trifluoro-methyl)pyrimidin-2-yl)amino)piperidin-1-yl)sulfonyl)phenyl)piperidin-4-yl)methyl)-azetidin-3-yl)-1H-indazol-3-yl)dihydropyrimidine-2,4(1H,3H)-dione]
100 to 500	Cn1nc(N2CCC(=O)NC2=O)c2ccc(C3CCN(C[C@H]4CCN(c5cccc(S(=O)(=O)N6CCC(Nc7ncc(Cl)cn7)CC6)c5)C4)CC3)cc21 [Example 144, (R)-1-(6-(1-((1-(3-((4-((5-chloropyrimidin-2-yl)amino)piperidin-1-yl)sulfonyl)phenyl)-pyrrolidin-3-yl)methyl)piperidin-4-yl)-1-methyl-1H-indazol-3-yl)dihydropyrimidine-2,4(1H,3H)-dione]
100 to 500	Cn1nc(N2CCC(=O)NC2=O)c2ccc(C3CN(CC4CCN(c5cccc(S(=O)(=O)N6CCC(Nc7ncc(Cl)cn7)CC6)c5)CC4)C3)cc21 [Example 249, 1-(6-(1-((1-(3-((4-((5-chloropyrimidin-2-yl)amino)piperidin-1-yl)sulfonyl)phenyl)piperidin-4-yl)methyl)azetidin-3-yl)-1-methyl-1H-indazol-3-yl)dihydropyrimidine-2,4(1H,3H)-dione]
100 to 500	O=C1CCC(N2Cc3cc(N4CCC(Oc5cccc(S(=O)(=O)N6CCC(Nc7ncc(C(F)(F)F)cn7)CC6)c5)CC4)ccc3C2=O)C(=O)N1 (stereo not drawn) [Example 41, 3-(1-ox0-5-(4-(3-((4-((5-(trifluoromethyl)-pyrimidin-2-yl)amino)piperidin-1-yl)sulfonyl)phenoxy)piperidin-1-yl)isoindolin-2-yl)piperidine-2,6-dione]
100 to 500	O=C1CCC(N2Cc3cc(C4CCN(CC5CCN(c6cccc(S(=O)(=O)N7CCC(Nc8ncc(Cl)cn8)CC7)c6)CC5)CC4)c(F)cc3C2=O)C(=O)N1 (stereo not drawn) [Example 120, 3-(5-(1-((1-(3-((4-((5-chloropyrimidin-2-yl)amino)piperidin-1-yl)sulfonyl)phenyl)-piperidin-4-yl)methyl)piperidin-4-yl)-6-fluoro-1-oxoisoindolin-2-yl)piperidine-2,6-dione]
